In this experiment the target is full-length ATR (Homo sapiens (Human), UniProt Q13535). The experiment is described as follows: ATR Inhibition Assay (radioactive-phosphate incorporation). Format: biochemical. Conditions: Ki(app); 10 μM ATP, 800 μM target peptide, 5 nM full-length ATR, 25° C. The procedure:
Compounds were screened for their ability to inhibit ATR kinase using a radioactive-phosphate incorporation assay. Assays were carried out in a mixture of 50 mM Tris/HCl (pH 7.5), 10 mM MgCl2 and 1 mM DTT. […] Assays were carried out at 25° C. in the presence of 5 nM full-length ATR. An assay stock buffer solution was prepared containing all of the reagents listed above, with the exception of ATP and the test compound of interest. […] The plate was pre-incubated for 10 minutes at 25° C. and the reaction initiated by addition of 15 μL [γ-33P]ATP (final concentration 10 μM). The reaction was stopped after 24 hours by the addition of 30 μL 0.1M phosphoric acid containing 2 mM ATP. A multiscreen phosphocellulose filter 96-well plate (Millipore, Cat no. MAPHN0B50) was pretreated with 100 μL 0.2M phosphoric acid prior to the addition of 45 μL of the stopped assay mixture. The plate was washed with 5×200 μL 0.2M phosphoric acid. After drying, 100 μL Optiphase ‘SuperMix’ liquid scintillation cocktail (Perkin Elmer) was added to the well prior to scintillation counting (1450 Microbeta Liquid Scintillation Counter, Wallac). After removing mean background values for all of the data points, Ki(app) data were calculated from non-linear regression analysis of the initial rate data using the Prism software package (GraphPad Prism version 3.0cx for Macintosh, GraphPad Software, San Diego Calif., USA).

The structures appear in SMILES notation.

Sequence of full-length ATR (Q13535 whole entry): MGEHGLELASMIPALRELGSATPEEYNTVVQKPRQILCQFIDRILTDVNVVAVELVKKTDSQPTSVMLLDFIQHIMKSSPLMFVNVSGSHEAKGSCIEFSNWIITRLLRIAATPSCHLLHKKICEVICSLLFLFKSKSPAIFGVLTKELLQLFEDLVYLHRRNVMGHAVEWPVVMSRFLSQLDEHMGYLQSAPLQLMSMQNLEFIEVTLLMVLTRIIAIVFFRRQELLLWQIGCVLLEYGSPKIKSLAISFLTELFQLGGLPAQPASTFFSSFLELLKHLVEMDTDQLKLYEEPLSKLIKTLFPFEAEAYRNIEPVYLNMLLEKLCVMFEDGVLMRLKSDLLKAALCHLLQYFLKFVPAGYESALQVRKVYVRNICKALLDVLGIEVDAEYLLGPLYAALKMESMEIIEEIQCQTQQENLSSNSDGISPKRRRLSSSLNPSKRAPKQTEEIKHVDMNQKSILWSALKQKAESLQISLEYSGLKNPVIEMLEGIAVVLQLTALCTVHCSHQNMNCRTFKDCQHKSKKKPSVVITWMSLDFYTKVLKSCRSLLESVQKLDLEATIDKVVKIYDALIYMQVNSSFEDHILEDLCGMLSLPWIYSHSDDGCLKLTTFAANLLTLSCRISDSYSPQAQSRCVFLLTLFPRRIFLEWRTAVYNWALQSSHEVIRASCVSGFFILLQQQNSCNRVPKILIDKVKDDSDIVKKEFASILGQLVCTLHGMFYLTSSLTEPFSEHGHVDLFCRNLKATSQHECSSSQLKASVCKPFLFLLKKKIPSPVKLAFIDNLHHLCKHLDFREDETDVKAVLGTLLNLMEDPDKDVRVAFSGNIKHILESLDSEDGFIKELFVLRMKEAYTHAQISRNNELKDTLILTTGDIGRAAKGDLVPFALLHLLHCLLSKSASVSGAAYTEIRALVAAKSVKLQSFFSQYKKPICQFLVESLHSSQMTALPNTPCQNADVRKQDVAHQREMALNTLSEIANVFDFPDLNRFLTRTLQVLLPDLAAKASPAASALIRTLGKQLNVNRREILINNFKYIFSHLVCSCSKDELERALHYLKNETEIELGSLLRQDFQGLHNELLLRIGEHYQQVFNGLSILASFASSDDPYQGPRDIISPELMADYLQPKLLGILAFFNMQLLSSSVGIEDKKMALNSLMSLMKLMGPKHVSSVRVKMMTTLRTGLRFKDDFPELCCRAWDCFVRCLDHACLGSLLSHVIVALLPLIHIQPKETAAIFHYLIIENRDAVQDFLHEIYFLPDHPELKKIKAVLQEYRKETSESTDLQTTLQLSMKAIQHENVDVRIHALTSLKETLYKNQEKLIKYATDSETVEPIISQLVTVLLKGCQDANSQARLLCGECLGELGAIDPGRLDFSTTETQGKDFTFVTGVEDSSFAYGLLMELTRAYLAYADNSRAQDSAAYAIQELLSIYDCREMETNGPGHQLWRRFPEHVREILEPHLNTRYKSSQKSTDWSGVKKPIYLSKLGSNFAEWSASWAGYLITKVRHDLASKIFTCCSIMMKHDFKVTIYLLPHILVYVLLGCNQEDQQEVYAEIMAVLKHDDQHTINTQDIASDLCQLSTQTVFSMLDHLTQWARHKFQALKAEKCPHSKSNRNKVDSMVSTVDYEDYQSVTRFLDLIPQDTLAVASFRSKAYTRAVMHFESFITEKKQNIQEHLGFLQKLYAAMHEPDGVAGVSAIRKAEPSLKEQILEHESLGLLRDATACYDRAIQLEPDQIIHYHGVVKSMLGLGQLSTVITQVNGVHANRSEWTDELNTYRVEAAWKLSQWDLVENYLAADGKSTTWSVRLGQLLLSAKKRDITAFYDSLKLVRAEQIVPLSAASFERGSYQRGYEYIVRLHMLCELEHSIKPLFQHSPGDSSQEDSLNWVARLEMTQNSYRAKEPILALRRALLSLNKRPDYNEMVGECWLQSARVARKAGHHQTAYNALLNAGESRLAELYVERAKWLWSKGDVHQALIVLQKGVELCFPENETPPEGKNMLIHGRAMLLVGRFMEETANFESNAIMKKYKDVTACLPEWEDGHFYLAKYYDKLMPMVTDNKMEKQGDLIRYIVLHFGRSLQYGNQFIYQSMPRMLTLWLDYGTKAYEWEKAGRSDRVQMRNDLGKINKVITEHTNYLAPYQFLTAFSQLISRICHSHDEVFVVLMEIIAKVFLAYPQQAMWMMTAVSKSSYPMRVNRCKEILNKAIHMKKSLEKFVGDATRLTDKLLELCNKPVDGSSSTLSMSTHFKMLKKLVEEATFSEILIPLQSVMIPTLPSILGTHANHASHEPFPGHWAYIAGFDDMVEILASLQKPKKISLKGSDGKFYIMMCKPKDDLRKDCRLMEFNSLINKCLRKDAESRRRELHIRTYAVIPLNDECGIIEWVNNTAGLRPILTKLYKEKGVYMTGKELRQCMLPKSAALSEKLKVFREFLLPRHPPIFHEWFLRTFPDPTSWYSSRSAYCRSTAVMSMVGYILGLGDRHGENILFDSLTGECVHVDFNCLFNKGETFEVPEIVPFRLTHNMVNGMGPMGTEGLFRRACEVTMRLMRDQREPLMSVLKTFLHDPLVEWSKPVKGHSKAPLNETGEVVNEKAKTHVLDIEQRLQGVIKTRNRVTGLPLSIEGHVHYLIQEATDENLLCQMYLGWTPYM

In the case of `CC(C)S(=O)(=O)c1ccc(-c2cnc(N)c(-c3cn(-c4ccccc4)nn3)n2)cc1` [Compound I-1, 5-(4-(isopropylsulfonyl)phenyl)-3-(1-phenyl-1H-1,2,3-triazol-4-yl)pyrazin-2-amine], the Ki is 6 nM.

The values above are taken from US8846917B2, “Compounds useful as inhibitors of ATR kinase” (Vertex Pharmaceuticals Incorporated, priority 2011, dated 2014).
